Measurements taken from patent publication US11325937B2, “Glycoside compound and preparation method therefor, composition, application, and intermediate” (SHANGHAI HUTCHISON PHARMACEUTICALS LIMITED, priority 2018, dated 2022).

Key:
[1] = system: rats with middle cerebral artery occlusion (MCAO); assay: Acute cerebral infarction model in rats with middle cerebral artery occlusion (MCAO); assay type: in vivo, male SD rats; conditions: MCAO, after 3 days, FIGS. 11-13
Excerpt: After obtaining the active molecules that can promote the expression of VEGF-A mRNA in the animal model of inflammatory angiogenesis, a rat model of cerebral infarction was used for further verification. Following the method as described in Longa, E. Z., Longa, E. Z., Weinstein, P. R., Carlson, S. & Commin, R. Reversible middle cerebral artery occlusion without craniectomy in rats. [J]. Stroke, 1989. 1: 84-91, an acute cerebral infarction model was established in rats with middle cerebral artery occlusion (MCAO); and following the method as described in C. dela Torre, T. Fortin, G. A. S. Park, K. S. Butler, P. Kozlowski, B. A. Pappas, H. de Socarraz, J. K. Saunders and M. T. Richard. [J]. Brain Research, 1992. 582:186-195, a chronic cerebral ischemia model was established in rats with permanent ligation of bilateral common carotid arteries (2VO). The inhibition on cerebral infarction and neuroprotection for brain injury of the active molecules screened in Effect Example 2 were verified.
The control drugs were: Edaravone (purchased from Zhejiang Shengtong Biotechnology Co., Ltd.), Clopidogrel bisulfate (purchased from Wuhan Yuancheng Gongchuang Technology Co., Ltd.), and Salvianolate (purchased from Henan Provincial People's Hospital). Clopidogrel bisulfate is a platelet aggregation inhibitor, and Edaravone is a brain protectant (free radical scavenger). The MCAO model of rats was made by the thread occlusion method. The rats used in this effect example were male SD rats weighing 280-320 grams, purchased from Shanghai SLAC Laboratory Animal Co., Ltd. Five SD (Sprague Dawley) rats in each group were administered by intraperitoneal injection, 2 h before surgery, and every 24 h after modeling.
Three days later, the brain was taken, and the rat brain was stained with TTC (2,3,5-triphenyltetrazolium chloride, to detect the cell viability) and then photographed. Infarction rate (%)=(Non-infarction area of right brain section−non-infarction area of left brain section)/total area of brain section*100%. According to t tests, *P<0.05, **P<0.01, ***P<0.001 compared with the model group (MCAO). Infarction inhibition rate (%) at different doses=(infarction rate of model group-infarction rate of treatment group)/infarction rate of model group*100%. The infarction inhibition rate at different doses was plotted, and the ED50 of the drug was calculated.
Moreover, the body weight of the rats was recorded. The rate of body weight change was calculated according to a formula: Rate of body weight change (%)=(final weight-initial weight)/[…].
Three days after the acute cerebral infarction model was established in rats with MCAO, the test rats were scored for neurological function according to the Longa nerve scoring standard.
Three days after the acute cerebral infarction model of MCAO was established in rats, the intact brain tissue was taken out, olfactory bulb and the brain tissue that is 4 mm in front of the frontal pole was removed, and the immediately adjacent brain tissue of 2 mm thick was taken for water content measurement in the brain. The water content in brain tissue is calculated by the formula: (WW−DW)/WW×100%, where WW is the wet weight and DW is the dry weight. Three days after the acute cerebral infarction model of MCAO was established in rats, the brain tissue was stained with Evans Blue (EB, a commonly used azo dye preparation) to evaluate the permeability across the blood-brain barrier (BBB), so as to evaluate the integrity of blood-brain barrier. Both experiments were tested with the optimal dose of each drug previously determined: TG-028 (5 mg/Kg), Salvianolate (20 mg/Kg), Clopidogrel bisulfate (40 mg/Kg), Edaravone (40 mg/Kg).

[2] = system: HUVEC-12 endothelial cells; assay: Migration of HUVEC-12 endothelial cells (scratch test); assay type: cell-based, Human; conditions: direct treatment of HUVEC-12, 24 h; compounds 10 μM, VEGF165 10 ng/mL; vs control medium
Method: (§1) The experiment included seven groups. In Group 1, HUVEC-12 endothelial cells (purchased from Shanghai RongChuang Biotech Co., Ltd.) were treated directly with simple DMEM medium (Gibcol, Shanghai) containing 10% FBS (SERANA, Germany) (control). In Group 2, the endothelial cells were treated with the supernatant obtained 24 h after macrophages were cultured with DMEM medium containing 10% FBS (s-control). In Group 3, the endothelial cells cultured with DMEM medium containing 10% FBS were treated directly with TG-028 (TG-028, 10 μM). In Group 4, the endothelial cells were treated with the supernatant obtained after macrophages cultured with DMEM medium containing 10% FBS were treated and co-incubated with TG-028 for 24 h (s-TG-028, […]). In Group 5, the endothelial cells cultured with DMEM medium containing 10% FBS were treated directly with Cpd-18 (Salvianolate) (cpd-18, 10 μM). In Group 6, the endothelial cells were treated with the supernatant obtained after macrophages cultured with DMEM medium containing 10% FBS were treated and co-incubated with Cpd-18 (Salvianolate, 10 μM) for 24 h (s-cpd18). In Group 7, the endothelial cells cultured with DMEM medium containing 10% FBS were treated directly with VEGFD (Recombinant Human VEGF165, 10 ng/mL).
Human umbilical vein endothelial cells HUVEC-12 in logarithmic growth phase were counted, adjusted to a cell density of 5×10^5 cells/mL, and inoculated in 1 mL per well in a 6-well plate. The cells were conventionally cultured in an incubator to form monolayer cells of 90% confluency. The 6-well plate fully plated with cells was scratched perpendicular to the cell surface with a 200 μL pipette tip from one end to the other end of the well. The scratches were made transversely with the pipette tip being as perpendicular as possible to the bottom of the plate. […]
The medium was aspirated and the cells scratched off were washed off with PBS. […] The migration of endothelial cells was detected according to the cell scratch method and the relative migration rate was calculated. […]

[3] = system: HUVEC-12 endothelial cells; assay: Tubule formation of HUVEC-12 endothelial cells (Matrigel); assay type: cell-based, Human; conditions: direct treatment of HUVEC-12, 3 h; compounds 10 μM, VEGF165 10 ng/mL; vs control medium
Method: as §1
A 96-well plate and sterile yellow pipette tip were stored overnight in a refrigerator at −20° C. The packed Matrigel was thawed overnight in a refrigerator at 4° C. before the experiment. On the following day, the Matrigel thawed was centrifuged for a few minutes. 60 μL per well of the pre-cooled Matrigel was added to a 96-well plate in an ice bath on a ultra-clean bench, and then allowed to stand in an incubator for 1 h. After Matrigel was solidified, HUVEC-12 cells in logarithmic growth phase were taken and adjusted for the cell density. The cells were well mixed with each group of medium at a density of 5×10^4 cells/well and inoculated into a 96-well plate. […] The tube-like structure was analyzed by ImageJ image-analysis software, and the tube formation ability was evaluated using number of master junction as a quantitative index.

Substance: VEGF
- inhibitory effect on cerebral infarction (in words) [1]: can inhibit cerebral infarction in rats
- effect on migration of endothelial cells (in words) [2]: significant effect on the migration of endothelial cells
- effect on tube formation of endothelial cells (in words) [3]: significant effect on the tube formation of endothelial cells
